The text below walks through data of US11292788B2, “IL-17 and IFN-gamma inhibition for the treatment of autoimmune diseases and chronic inflammation” (Immunic AG, priority 2017, dated 2022).

Common to all, as to assay type: cell-based
Assay [1] has as its system IL-17F. Put plainly: Cytokine assay: IL-17F production by human PBMC stimulated with PHA. The note with it: IC50 class, read-out: IL-17F Inhib. Here is the method: (§1) Cytokine Assay: Analysis of Proliferation of and Cytokine Production by Human PBMC Stimulated with PHA
(§2) Peripheral blood mononuclear cells (PBMC) from healthy human donors were purified using Accuspin™ System-Histopaque-1077 (Sigma) according to the protocol recommended by the manufacturer. Purified PBMC were then washed twice with phosphate-buffered saline (PBS) and resuspended in RPMI1640 culture medium supplemented with 10% dialyzed heat inactivated fetal calf serum, 1.5 mM L-glutamine, 100 U penicillin/ml, and […] (all from PAN Biotech, Aidenbach, Germany). For stimulation, PBMC were seeded at 1×10^5 cells/well, activated with 2 μg/ml phytohaemagglutinin (PHA, Sigma) and incubated with the test compounds for 48 hours. IL-17A, IL-17F and INF-γ were then determined in the culture supernatant using a Luminex BioPlex system, following the manufacturer's instructions (BioRad, Munich, Germany). For screening, compounds were used at 10, 1, 0.1 and 0.01 μM. To determine the IC50, compounds were titrated semilogarithmically.
(§3) Cytokines were determined in the aforementioned culture supernatant using the following methods: IL-17A was measured using the human homodimer IL-17A ELISA Ready Set Go Kit from eBioscience (Frankfurt, Germany); IL-17F using the human IL-17F ELI-Pair from Hölzel DiagnosticaGmBH (Köln, Germany); and IFN-γ using the OptEIA human IFN-g ELISA from BD Bioscience (Heidelberg, Germany), all following the manufacturer's instructions.

Assay [2] deals with INF-γ. Kind of assay: Cytokine assay: INF-γ production by human PBMC stimulated with PHA. The note with it: IC50 class, read-out: IFN-gamma Inhib. The protocol: as §1, §2, §3
Assay [3] relates to IL-17A. Kind of assay: Cytokine assay: IL-17A production by human PBMC stimulated with PHA. The settings on record: IC50 class, read-out: IL-17A Inhib. The protocol:
as §1, §2, §3

Like-named read-outs stand apart in the source and are kept apart here. Bounds are passed on as bounds.

Consider `C=CCCC(O)(CC1CC1)c1c(-c2c(F)cccc2Cl)noc1-c1cnn(CC(C)(C)O)c1C(F)(F)F` (racemic) [Example 38, 2-[3-(2-chloro-6-fluorophenyl)-5-[1-(2-hydroxy-2-methylpropyl)-5-(trifluoromethyl)-1H-pyrazol-4-yl]-1,2-oxazol-4-yl]-1-cyclopropylhex-5-en-2-ol], for which the IC50 in assay [1] (Homo sapiens, PBMC) was no less than 5000 nM; in assay [2] (Homo sapiens, PBMC), no less than 5000 nM; in assay [3] (Homo sapiens, PBMC), 500 to 5000 nM.

Turning to `CCOC(=O)c1c(-c2c(F)cccc2Cl)noc1-c1cnn([C@H]2C[C@@](C)(O)C2)c1C(F)(F)F` [Example 11, ethyl 3-(2-chloro-6-fluorophenyl)-5-[1-(3-hydroxy-3-methylcyclobutyl)-5-(trifluoromethyl)-1H-pyrazol-4-yl]-1,2-oxazole-4-carboxylate], the IC50 in assay [3] is less than 50 nM.

As to `COC(=O)c1c(-c2ccccc2Cl)noc1-c1cnn([C@H]2C[C@](C)(O)C2)c1C` [Example 17, methyl 3-(2-chlorophenyl)-5-(1-(3-hydroxy-3-methylcyclobutyl)-5-methyl-1H-pyrazol-4-yl)isoxazole-4-carboxylate], the IC50 in assay [1], in assay [2] and in assay [3] was 500 to 5000 nM throughout.

On to `COC(=O)c1c(-c2cccnc2OC)noc1-c1cnn(C[C@@H](C)O)c1C(F)(F)F` [Example 21, methyl (R)-5-(1-(2-hydroxypropyl)-5-(trifluoromethyl)-1H-pyrazol-4-yl)-3-(2-methoxypyridin-3-yl)isoxazole-4-carboxylate], for which the IC50 lay within 500 to 5000 nM in assay [1] (Homo sapiens, PBMC); 500 to 5000 nM in assay [2] (Homo sapiens, PBMC); 500 to 5000 nM in assay [3] (Homo sapiens, PBMC).

As for `COC(=O)c1c(-c2ccccc2Cl)noc1-c1cnn(C[C@H](C)O)c1C(F)(F)F` [Example 22, methyl (S)-3-(2-chlorophenyl)-5-(1-(2-hydroxypropyl)-5-(trifluoromethyl)-1H-pyrazol-4-yl)isoxazole-4-carboxylate], the IC50 in assay [1] (Homo sapiens, PBMC) was 50 to 500 nM; in assay [2] (Homo sapiens, PBMC), less than 50 nM; in assay [3] (Homo sapiens, PBMC) it was 50 to 500 nM.

As to `COC(=O)c1c(-c2ccccc2Cl)noc1-c1cnn(C[C@H](C)O)c1C` [Example 24, methyl (S)-3-(2-chlorophenyl)-5-(1-(2-hydroxypropyl)-5-methyl-1H-pyrazol-4-yl)isoxazole-4-carboxylate], the IC50 was in the range of 50 to 500 nM in assay [1] (Homo sapiens, PBMC); 50 to 500 nM in assay [2] (Homo sapiens, PBMC); 500 to 5000 nM in assay [3] (Homo sapiens, PBMC).

Regarding `COC(=O)c1c(-c2c(F)cccc2Cl)noc1-c1cnn(C2CC(O)C2)c1C(F)(F)F` (stereo not drawn) [Example 28, methyl 3-(2-chloro-6-fluorophenyl)-5-(1-(3-hydroxycyclobutyl)-5-(trifluoromethyl)-1H-pyrazol-4-yl)isoxazole-4-carboxylate], the IC50 in assay [1] (Homo sapiens, PBMC) lay in the range of 500 to 5000 nM; in assay [2] (Homo sapiens, PBMC) it was 500 to 5000 nM; in assay [3] (Homo sapiens, PBMC) it was 500 to 5000 nM.

`COC[C@]1(O)C[C@@H](n2ncc(-c3onc(-c4ccccc4Cl)c3C(=O)OC)c2C(F)(F)F)C1` [Example 29, methyl 3-(2-chlorophenyl)-5-(1-(3-hydroxy-3-(methoxymethyl)cyclobutyl)-5-(trifluoromethyl)-1H-pyrazol-4-yl)isoxazole-4-carboxylate]: the IC50 in assay [1] (Homo sapiens, PBMC) lay within 500 to 5000 nM; in assay [2] (Homo sapiens, PBMC), 50 to 500 nM; in assay [3] (Homo sapiens, PBMC), 500 to 5000 nM.

For the compound `Cc1nnc(-c2c(-c3c(F)cccc3Cl)noc2-c2cnn(CC(C)(C)O)c2C(F)(F)F)o1` [Example 30, 1-(4-(3-(2-chloro-6-fluorophenyl)-4-(5-methyl-1,3,4-oxadiazol-2-yl)isoxazol-5-yl)-5-(trifluoromethyl)-1H-pyrazol-1-yl)-2-methylpropan-2-ol], the IC50 in assay [1] (Homo sapiens, PBMC) was in the range of 500 to 5000 nM; in assay [2] (Homo sapiens, PBMC) it was 500 to 5000 nM; in assay [3] (Homo sapiens, PBMC), 50 to 500 nM.

As for `CC(=O)c1c(-c2c(F)cccc2Cl)noc1-c1cnn(CC(C)(C)O)c1C(F)(F)F` [Example 34, 1-(3-(2-chloro-6-fluorophenyl)-5-(1-(2-hydroxy-2-methylpropyl)-5-(trifluoromethyl)-1H-pyrazol-4-yl)-1,2-oxazol-4-yl)ethanone], the IC50 fell in the range of 500 to 5000 nM in assay [1] (Homo sapiens, PBMC); 500 to 5000 nM in assay [2] (Homo sapiens, PBMC); 500 to 5000 nM in assay [3] (Homo sapiens, PBMC).

For `CC(C)(O)Cn1ncc(-c2onc(-c3c(F)cccc3Cl)c2C(=O)CC2CCC2)c1C(F)(F)F` [Example 36, 1-[3-(2-chloro-6-fluorophenyl)-5-[1-(2-hydroxy-2-methylpropyl)-5-(trifluoromethyl)-1H-pyrazol-4-yl]-1,2-oxazol-4-yl]-2-cyclobutylethan-1-one], the IC50 lay in the range of 50 to 500 nM in assay [1] (Homo sapiens, PBMC); 50 to 500 nM in assay [2] (Homo sapiens, PBMC); 500 to 5000 nM in assay [3] (Homo sapiens, PBMC).

Regarding `C=CCCC(=O)c1c(-c2c(F)cccc2Cl)noc1-c1cnn(CC(C)(C)O)c1C(F)(F)F` [Example 37, 1-[3-(2-chloro-6-fluorophenyl)-5-[1-(2-hydroxy-2-methylpropyl)-5-(trifluoromethyl)-1H-pyrazol-4-yl]-1,2-oxazol-4-yl]pent-4-en-1-one], the IC50 in assay [1] (Homo sapiens, PBMC) is 50 to 500 nM; in assay [2] (Homo sapiens, PBMC), 50 to 500 nM; in assay [3] (Homo sapiens, PBMC) it was 50 to 500 nM.

With `COCC(=O)c1c(-c2c(F)cccc2Cl)noc1-c1cnn(CC(C)(C)O)c1C(F)(F)F` [Example 39, 1-[3-(2-chloro-6-fluorophenyl)-5-[1-(2-hydroxy-2-methylpropyl)-5-(trifluoromethyl)-1H-pyrazol-4-yl]-1,2-oxazol-4-yl]-2-methoxyethan-1-one], the IC50 in assay [1] (Homo sapiens, PBMC) is no less than 5000 nM; in assay [2] (Homo sapiens, PBMC) it was 500 to 5000 nM; in assay [3] (Homo sapiens, PBMC) it was 500 to 5000 nM.

In the case of `COCC(=O)c1c(-c2c(F)cccc2Cl)noc1-c1cnn(C[C@@H](C)O)c1C(F)(F)F` [Example 40, 1-[3-(2-chloro-6-fluorophenyl)-5-{1-[(2R)-2-hydroxypropyl]-5-(trifluoromethyl)-1H-pyrazol-4-yl}-1,2-oxazol-4-yl]-2-methoxyethan-1-one], the IC50 in assay [1] (Homo sapiens, PBMC) was in the range of 500 to 5000 nM; in assay [2] (Homo sapiens, PBMC) it was 500 to 5000 nM; in assay [3] (Homo sapiens, PBMC), 500 to 5000 nM.

Turning to `CC(C)(O)Cn1ncc(-c2onc(-c3c(F)cccc3Cl)c2C(=O)NC2CCCC2)c1C(F)(F)F` [Example 41, 3-(2-chloro-6-fluorophenyl)-N-cyclopentyl-5-(1-(2-hydroxy-2-methylpropyl)-5-(trifluoromethyl)-1H-pyrazol-4-yl)isoxazole-4-carboxamide], the IC50 is no less than 5000 nM in assay [1] (Homo sapiens, PBMC); no less than 5000 nM in assay [2] (Homo sapiens, PBMC); no less than 5000 nM in assay [3] (Homo sapiens, PBMC).

Consider `CC(C)(O)Cn1ncc(-c2onc(-c3c(F)cccc3Cl)c2C(=O)NC2CC2)c1C(F)(F)F` [Example 42, 3-(2-chloro-6-fluorophenyl)-N-cyclopropyl-5-(1-(2-hydroxy-2-methylpropyl)-5-(trifluoromethyl)-1H-pyrazol-4-yl)isoxazole-4-carboxamide], for which the IC50 is no less than 5000 nM in assay [1] (Homo sapiens, PBMC); no less than 5000 nM in assay [2] (Homo sapiens, PBMC); no less than 5000 nM in assay [3] (Homo sapiens, PBMC).

As for `CC(C)(O)Cn1ncc(-c2onc(-c3c(F)cccc3Cl)c2C(=O)NC2CCC2)c1C(F)(F)F` [Example 43, 3-(2-chloro-6-fluorophenyl)-N-cyclobutyl-5-(1-(2-hydroxy-2-methylpropyl)-5-(trifluoromethyl)-1H-pyrazol-4-yl)isoxazole-4-carboxamide], the IC50 in assay [1] (Homo sapiens, PBMC) lay within 500 to 5000 nM; in assay [2] (Homo sapiens, PBMC), 500 to 5000 nM; in assay [3] (Homo sapiens, PBMC), 500 to 5000 nM.

Consider `C[C@@H](O)Cn1ncc(-c2onc(-c3c(F)cccc3Cl)c2C(=O)NC2CC2)c1C(F)(F)F` [Example 45, 3-(2-chloro-6-fluorophenyl)-N-cyclopropyl-5-(1-((2R)-2-hydroxypropyl)-5-(trifluoromethyl)-1H-pyrazol-4-yl)isoxazole-4-carboxamide], for which the IC50 lay in the range of 500 to 5000 nM in assay [1] (Homo sapiens, PBMC); 500 to 5000 nM in assay [2] (Homo sapiens, PBMC); 500 to 5000 nM in assay [3] (Homo sapiens, PBMC).

`C[C@@H](O)Cn1ncc(-c2onc(-c3c(F)cccc3Cl)c2C(=O)NC2CCC2)c1C(F)(F)F` [Example 46, 3-(2-chloro-6-fluorophenyl)-N-cyclobutyl-5-(1-((2R)-2-hydroxypropyl)-5-(trifluoromethyl)-1H-pyrazol-4-yl)isoxazole-4-carboxamide]: the IC50 in assay [1] (Homo sapiens, PBMC) fell in the range of 50 to 500 nM; in assay [2] (Homo sapiens, PBMC) it was 50 to 500 nM; in assay [3] (Homo sapiens, PBMC), 500 to 5000 nM.

For the compound `Cc1c(-c2onc(-c3c(F)cccc3Cl)c2C(=O)OC2CC2)cnn1[C@H]1C[C@@](C)(O)C1` [Example 62, cyclopropyl 3-(2-chloro-6-fluorophenyl)-5-{5-methyl-1-[3-hydroxy-3-methylcyclobutyl]-1H-pyrazol-4-yl}-1,2-oxazole-4-carboxylate], the IC50 in assay [3] was less than 50 nM.

In the case of `COCc1c(-c2c(F)cccc2Cl)noc1-c1cnn([C@H]2C[C@@](C)(O)C2)c1C` [Example 70, 3-{4-[3-(2-chloro-6-fluorophenyl)-4-(methoxymethyl)-1,2-oxazol-5-yl]-5-methyl-1H-pyrazol-1-yl}-1-methylcyclobutan-1-ol], the IC50 in assay [1] (Homo sapiens, PBMC) lay in the range of 500 to 5000 nM; in assay [2] (Homo sapiens, PBMC), 500 to 5000 nM.

As for `COCc1c(-c2c(F)cccc2Cl)noc1-c1cnn([C@H]2C[C@](C)(O)C2)c1C` [Example 71, 3-{4-[3-(2-chloro-6-fluorophenyl)-4-(methoxymethyl)-1,2-oxazol-5-yl]-5-methyl-1H-pyrazol-1-yl}-1-methylcyclobutan-1-ol], the IC50 in assay [1] (Homo sapiens, PBMC) was in the range of 500 to 5000 nM; in assay [2] (Homo sapiens, PBMC), 500 to 5000 nM.
